The source of these data is patent US20220333153A1, “ULTRASENSITIVE ELECTROCHEMICAL BIOSENSORS” (MOLECULAR WAREHOUSE, LTD., priority 2016, published 2022).

A short description of test [1]: GDH enzymatic activity of the chimeric proteins themselves. Type of test: biochemical. Here is the method:
(§1) The GDH enzyme assay was performed as described by Yu et al.^20 Briefly, the 1.5-mL assay system consisted of 20 mM glucose, 0.6 mM phenazine methosulfate, 0.06 mM […], 10 mM MOPS (pH 7.0), and corresponding concentration of CaCl2 and enzyme. The enzymatic assay was performed at 25° C. by monitoring the reduction in the absorbance of […] at 600 nm.
We conjectured that dislocation of either of these residues will impact the catalysis and if carried out in a reversible fashion could utilized for controlling enzymes activity. To test this idea we inserted calmodulin (CaM) domain into GDH at the position 330 and produced the resulting CaM-GDH chimeric protein (SEQ ID NO: 10) in recombinant form. […] The activity of fully activated fusion represented 50% of activity of the wild-type protein. […] We therefore concluded that we successfully constructed a peptide regulated GDH biosensor module.
We next decided to test if the developed allosteric module can be used to construct a generic biosensor architecture. To this end we fused the developed CaM-GDH chimera C-terminally with rapamycin-binding FKBP domain (SEQ ID NO: 11) and produced the protein in recombinant form. […] We then constructed a fusion between FKBP binding partner FRB and CaM-BP that would associate with the former reporter molecule in the rapamycin dependent fashion. […]

In test [2] the test system is affinity clamp-GDH chimera (SEQ ID NO: 25). As to the kind of experiment: OFF switch: inhibition of GDH activity of affinity clamp-GDH chimera by PDZ peptides. Type of test: biochemical. Particulars: 10 nM chimera; 1 μM strong or 2 μM weak peptide ligand.
Text: (§2) FIG. 5. Development and applications of an OFF switch biosensor based on GDH. […] (C) as in B but using the biosensor with the optimized linkers between the affinity clamp and the GDH, titrated with the increasing concentrations of the strong ligand peptide. (D) A dissociative biosensor architecture based on the developed affinity clamp-GDH biosensor. The star denotes the ligand either genetically fused or conjugated to the regulatory domain. (E) Exemplification of the design shown in D with a biosensor for IL18: the ligand is IL18 and the binder is IL18 binding protein. […] (G) As in D but using a binder that competitively associates with the receptor domain and is dislodged by the binding of the ligand.
as §1
So far all presented biosensor architectures were designed to increase the GDH activity upon association with the analyte. While this is a common strategy it creates potential problems when binding of two protein modules to a single small molecule is required. […]

In test [3] the test system is affinity clamp-GDH IL18 binding protein chimera (SEQ ID NO: 37) with IL18-affinity-clamp ligand fusion (SEQ ID NO: 38). Put plainly: IL18 dissociative biosensor, GDH activity. The following applies: 10 nM SEQ ID NO: 37, 50 nM SEQ ID NO: 38; 0 to 2.5 μM IL18. Format: biochemical.
Text: as §2
The developed GDH —based OFF switch can be converted into biosensors of small molecules and biological polymers such as proteins and nucleic acids by fusing it to the appropriate binding domains (FIG. 5D) FIG. 5E depicts an IL18 biosensor that was generated incorporating a GDH-based OFF switch based on a fusion with IL18 binding protein, where the ligand is IL18 and the binder IL18 binding protein.

For test [4], the target named is PDZ domain binding peptide. Particulars: read-out: affinity for PDZ domain binding peptide; cited from earlier work.

For “CaM-GDH chimeric protein: PQQ-GDH with calmodulin domain inserted at position 330, recombinant”, the “GDH activity of the protein without activating ligand” value in test [1] (absence of CaM-BP / activating ligand) is “some GDH activity”. For the same molecule, the “activity of fully activated fusion as share of activity of the wild-type protein” value in test [1] (fully activated by CaM-BP) is recorded as 50%.

As to “RGSIDTWV (PDZ peptide (ePDZ ligand, high affinity)) [SEQ ID NO: 27]”, the “inhibition of GDH activity of affinity clamp-GDH chimera” value in test [2] was “stronger inhibition of GDH activity than the weaker ligand”.

B1: IL18: cytokine analyte of the dissociative biosensor (protein)
chain: GYFGKLESKLSVIRNLNDQVLFIDQGNRPLFEDMTDSDSRDNAPRTIFIISMYKDSQPRGMAVTISVKSEKISTLSSENKIISFKEMNPPDNIKDTKSDIIFFQRSVPGHDNKMQFESSSYEGYFLASEKERDLFKLILKKEDELGDRSIMFTVQNEDG
modifications: Interleukin-18
notes: cytokine analyte of the dissociative biosensor
Take B1: the “detection by IL18 biosensor (GDH activity)” value in test [3] is recorded as “dose-dependent detection”.

B2: affinity clamp: circularly permutated Erbin PDZ domain linked to engineered fibronectin type III (FN3) (protein)
chain: EDAPESPELGFSISGGVGGRGNPFRPDDDGIFVTRVQPEGPASKLLQPGDKIIQANGYSFINIEHGQAVSLLKTFQNTVELIIVREVGNGAKQEIRVRVEKDGGSGGVSSVPTNLEVVAATPTSLLISWDAYRELPVSYYRITYGETGGNSPVQEFTVPGSKSTATISGLKPGVDYTITVYAHYNYHYYSSPISINYRGPG
modifications: ePDZ domain
In the case of B2, in test [4], the Kd is < 1 nM.
